The values below come from patent publication US20260364072A1, “METHODS FOR PROMOTING EXPANSION OF HUMAN CD34+ CELLS IN VIVO AND FOR PROMOTING NEURAL REGENERATION” (THE REGENTS OF THE UNIVERSITY OF CALIFORNIA, priority 2023, published 2026).

For one series, the system named is solid tumors. To be noted: cited from earlier work.
A further series concerns hematologic malignancies. The following applies: Phase 1, cited from earlier work.
Another series has as its system MDA-MB-231 cells. As to the kind of experiment: IVIS total flux in MDA-MB-231 transplanted mice. To be noted: 0 day after completing the dosing plan; compared to vehicle control. It counts as in vivo, human cells in Rag2 neonatal mice. From the text:
FIG. 5 graphically illustrates IVIS (In Vivo Imaging System) results of ADAR1-MDA-MB-231 transplanted Rag2 mouse models, and IVIS images were taken at 6 weeks after transplant (FIG. 5A), after two weeks of therapy (FIG. 5B), and one week after therapy was completed (FIG. 5C), as discussed in further detail in Example 5, below.
Ten thousand (10k) MDA-MB-231 cells were intrahepatically transplanted into Rag2 neonatal mice, then treated with fedratinib, rebecsinib, or a combination of fedratinib and rebecsinib. IVIS images were taken at 6 weeks after transplant (FIG. 5A), after two weeks of therapy (FIG. 5B), and one week after therapy was completed (FIG. 5C). The IVIS signals from the mice were graphed by groups.
The IVIS images of these mice were taken at 0 day after completing the dosing plan and are graphed by their total flux.

The test system of series [1] is ADAR1 and MCL1 transcripts. In words: Comparative in vivo study with fedratinib. Also on record: species or system human cells in mice. To be noted: twice daily oral 60 mg/kg, two weeks. On the procedure:
Additional aliquots of CD34+ cells from bone marrow and/or spleens of treated and control animals were used for serial transplantation assays after Rebecsinib treatment, including engraftment studies and overall survival assays. In a separate cohort of animals, mice were treated with Fedratinib for two weeks (twice daily oral delivery at 60 mg/kg) as a positive control for modulation of ADAR1 expression and activity.^8

Where a name gives a salt, the structure may show the parent alone.

`CC[C@H](O)[C@@H](C)[C@H]1O[C@@H]1C[C@@](C)(O)/C=C/C=C(\C)[C@H]1OC(=O)C[C@H](O)CC[C@@](C)(O)[C@@H](OC(=O)N2CCN(C3CCCCCC3)CC2)/C=C/[C@@H]1C` [E7107]: the reversible optic neuritis with solid tumors (patients with solid tumors) is reported as 2 of 26. In the series on solid tumors (related to optic neuritis), the stability entry was “compound instability”.

On to H3B-8800, for which the durable remissions entry with hematologic malignancies was “not sufficiently potent to induce durable remissions”. Besides, in the series on hematologic malignancies (efficacy dependent on SRSF2 mutations), the “red blood transfusion independence” value is on record as “red blood transfusion independence in some patients”.

On to `Cc1cnc(Nc2ccc(OCCN3CCCC3)cc2)nc1Nc1cccc(S(=O)(=O)NC(C)(C)C)c1` [fedratinib, N-tert-butyl-3-[(5-methyl2-{[4-(2-pyrrolidin-1-ylethoxy)phenyl]amino}pyrimidin-4-yl)amino]benzenesulfonamide dihydrochloride monohydrate], for which the “total flux (IVIS)” value with MDA-MB-231 cells is recorded as “significantly decreased”. Moreover, in series [1], the ADAR1 expression entry was “significantly reduced ADAR1 expression” and the MCL1 splicing entry is reported as “no alteration of MCL1 splicing”.
